In patent US9957214B2, “Multifunctional radical quenchers” (ARIZONA BOARD OF REGENTS ON BEHALF OF ARIZONA STATE …, priority 2012, dated 2018):

Assays:
[1] = test system: differentiated SH-SY5Y cells; assay: Neuroprotection against Aβ 1-42 oligomer induced cytotoxicity (WST-1); type: cell-based, human; conditions: Aβ 1-42 oligomers 2.5 μM, 48 h
Procedure: FIG. 8. Effect of nitrogen-containing 1,4-benzoquinone 40 and geldanamycin on Aβ 1-42 induced neurotoxicity in differentiated SH-SY5Y cells.
The cytotoxic effect of Aβ 1-42 oligomers (2.5 μM) on differentiated SH-SY5Y cells was evaluated in presence and absence of the test compounds. Sequential treatment of the human SH-SY5Y neuroblastoma cell line with retinoic acid and brain-derived neurotrophic factor (BDNF) generates nearly pure populations of human neuron-like cells, thus providing a model for the study of neuronal differentiation and neuroprotection as previously described, with some modifications (Encinas et al. (2000) J. Neurochem. 75, 991-1003). […] The plates were incubated at 37° C. in an atmosphere having 95% humidity and 5% CO2 for 48 h and then cell viability was measured using a WST-1 Kit (Roche Diagnostics). […] Color intensity was measured with a 96-well plate at 450 nm using a SpectraMax M5 microplate reader (Molecular Devices, Sunnyvale, Calif.). Results are expressed as percentage of viable cells relative to untreated control after subtracting background. Data are expressed as means±S.E.M. (n=3).
Synthetic human Aβ 1-42 was purchased from AnaSpec (San Jose, Calif.). […] Aβ 1-42 peptide content was determined by the method of bicinchoninic acid assay (micro-BCA kit, Pierce) using BSA as reference.

[2] = target: bovine heart mitochondrial complex I (Bos taurus, UniProt P03887+P17694+P42026); assay: Complex I (NADH-Q1 oxidoreductase) inhibition in submitochondrial particles; type: biochemical; conditions: submitochondrial particles, 30° C.; for IC50: read-out: Complex I inhibition IC50; for Emax: read-out: Complex I inhibition Imax
bovine heart mitochondrial complex I, sequence (P25708 21-464): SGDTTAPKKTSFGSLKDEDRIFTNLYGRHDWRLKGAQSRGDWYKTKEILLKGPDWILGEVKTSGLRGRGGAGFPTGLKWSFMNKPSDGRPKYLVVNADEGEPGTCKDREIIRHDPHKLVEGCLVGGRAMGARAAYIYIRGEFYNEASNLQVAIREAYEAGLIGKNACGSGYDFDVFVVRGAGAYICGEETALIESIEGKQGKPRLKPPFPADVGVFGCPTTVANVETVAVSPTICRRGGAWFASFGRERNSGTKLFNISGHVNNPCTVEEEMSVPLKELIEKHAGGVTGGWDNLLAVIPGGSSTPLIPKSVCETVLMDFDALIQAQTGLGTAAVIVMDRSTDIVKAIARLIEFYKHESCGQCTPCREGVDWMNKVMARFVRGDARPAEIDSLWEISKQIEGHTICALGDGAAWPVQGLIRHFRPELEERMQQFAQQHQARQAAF
bovine heart mitochondrial complex I, sequence (P42026 38-216): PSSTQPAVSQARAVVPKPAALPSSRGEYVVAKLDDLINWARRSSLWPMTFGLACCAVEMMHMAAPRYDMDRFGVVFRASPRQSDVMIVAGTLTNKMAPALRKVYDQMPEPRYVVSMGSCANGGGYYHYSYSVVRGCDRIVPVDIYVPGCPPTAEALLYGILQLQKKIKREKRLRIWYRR
bovine heart mitochondrial complex I, sequence (P17694 34-463): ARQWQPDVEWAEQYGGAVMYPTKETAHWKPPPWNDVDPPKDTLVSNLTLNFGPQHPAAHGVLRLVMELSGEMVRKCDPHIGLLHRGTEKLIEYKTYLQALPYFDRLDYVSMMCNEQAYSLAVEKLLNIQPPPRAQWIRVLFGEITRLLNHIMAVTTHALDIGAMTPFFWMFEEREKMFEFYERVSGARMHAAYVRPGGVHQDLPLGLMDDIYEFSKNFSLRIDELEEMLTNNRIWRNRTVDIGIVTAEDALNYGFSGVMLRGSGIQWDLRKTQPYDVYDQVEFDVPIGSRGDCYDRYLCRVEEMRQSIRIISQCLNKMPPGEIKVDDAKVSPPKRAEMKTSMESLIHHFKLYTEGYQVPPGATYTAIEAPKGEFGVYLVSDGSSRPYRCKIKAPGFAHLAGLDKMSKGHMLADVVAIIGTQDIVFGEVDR
bovine heart mitochondrial complex I, sequence (P15690 24-727, further chain): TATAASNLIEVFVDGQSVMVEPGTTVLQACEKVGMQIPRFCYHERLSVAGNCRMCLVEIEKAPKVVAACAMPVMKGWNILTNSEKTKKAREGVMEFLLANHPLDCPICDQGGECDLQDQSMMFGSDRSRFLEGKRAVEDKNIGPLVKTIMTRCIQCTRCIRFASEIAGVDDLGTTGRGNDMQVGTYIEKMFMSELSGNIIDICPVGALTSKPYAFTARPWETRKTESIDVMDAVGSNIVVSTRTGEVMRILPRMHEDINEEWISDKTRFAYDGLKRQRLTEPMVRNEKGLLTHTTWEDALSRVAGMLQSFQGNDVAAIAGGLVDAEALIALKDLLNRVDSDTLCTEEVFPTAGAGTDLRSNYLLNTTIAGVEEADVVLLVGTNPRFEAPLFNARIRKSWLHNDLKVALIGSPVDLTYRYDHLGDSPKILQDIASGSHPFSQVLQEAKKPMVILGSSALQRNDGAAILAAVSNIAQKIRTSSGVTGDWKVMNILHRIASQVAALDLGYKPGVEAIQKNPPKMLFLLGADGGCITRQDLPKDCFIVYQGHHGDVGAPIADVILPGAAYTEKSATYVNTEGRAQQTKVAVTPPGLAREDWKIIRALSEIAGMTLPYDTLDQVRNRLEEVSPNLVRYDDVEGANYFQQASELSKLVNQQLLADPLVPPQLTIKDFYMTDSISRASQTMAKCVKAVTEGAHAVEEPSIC
bovine heart mitochondrial complex I, sequence (P03887 whole entry): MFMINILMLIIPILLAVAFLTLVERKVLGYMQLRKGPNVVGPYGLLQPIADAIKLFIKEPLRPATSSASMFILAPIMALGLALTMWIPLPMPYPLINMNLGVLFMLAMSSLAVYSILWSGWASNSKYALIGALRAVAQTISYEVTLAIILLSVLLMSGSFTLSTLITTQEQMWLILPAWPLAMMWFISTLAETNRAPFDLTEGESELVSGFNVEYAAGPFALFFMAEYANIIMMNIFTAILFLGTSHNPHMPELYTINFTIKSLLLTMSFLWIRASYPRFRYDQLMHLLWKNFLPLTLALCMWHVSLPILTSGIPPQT
bovine heart mitochondrial complex I, sequence (P42028 37-212, further chain): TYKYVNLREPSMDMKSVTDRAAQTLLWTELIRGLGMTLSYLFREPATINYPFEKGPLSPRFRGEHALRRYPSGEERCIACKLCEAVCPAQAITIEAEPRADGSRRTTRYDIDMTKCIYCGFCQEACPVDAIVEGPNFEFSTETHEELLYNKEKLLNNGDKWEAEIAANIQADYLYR

| SMILES | Effect on Aβ 1-42 induced cytotoxicity (in words) [1] | IC50 [2] [µM] | Emax [2] [%] |
| --- | --- | --- | --- |
| COC1=C2CCCCCCCCCCCCCCCNC(=CC1=O)C2=O [Compound 40] | decreased Aβ 1-42 induced cytotoxicity in a concentration dependent manner |  |  |
| CCCCCCCCCCCCCC1=C(OC)C(=O)C=C(NCCCC(=O)OCCCCCC)C1=O [Compound 18, Hexyl 4-(4-methoxy-3,6-dioxo-5-tridecylcyclohexa-1,4-dienylamino)butanoate] |  | 513 ± 38 | > 85 |
| CCCCCCCCCCCCCC1=C(OC)C(=O)C=C(NCCCC(=O)OC(C)(C)C)C1=O [Compound 7, tert-butyl 4-(4-methoxy-3,6-dioxo-5-tridecylcyclohexa-1,4-dienylamino)butanoate] |  | 540 ± 17 | > 85 |
